Experimental data from PMC5340791, “New approaches for the reliable in vitro assessment of binding affinity based on high-resolution real-time data acquisition of radioligand-receptor binding kinetics” (EJNMMI Research, 2017).

Legend:
[1] = molecular target: T1, human adenosine A3 receptor (CHO-K1-hA3R cells) (Homo sapiens, UniProt P0DMS8); assay: Competitive real-time cell-binding studies (LigandTracer), displacement of [125I]-AB-MECA; conditions: 0.7 nM [125I]-AB-MECA, ambient temperature, Cheng-Prusoff, mean ± SEM, three independent experiments
T1 construct: expressed in transfected cells
T1 sequence (P0DMS8 1-318): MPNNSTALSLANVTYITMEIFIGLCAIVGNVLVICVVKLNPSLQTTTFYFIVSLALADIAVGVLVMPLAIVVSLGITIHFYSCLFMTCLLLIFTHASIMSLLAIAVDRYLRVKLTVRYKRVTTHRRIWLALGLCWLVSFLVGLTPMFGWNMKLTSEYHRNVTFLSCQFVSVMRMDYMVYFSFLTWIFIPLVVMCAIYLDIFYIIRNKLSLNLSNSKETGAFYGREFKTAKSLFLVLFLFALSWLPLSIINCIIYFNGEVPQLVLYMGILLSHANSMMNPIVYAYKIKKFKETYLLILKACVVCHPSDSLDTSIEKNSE
Description: The measurements were made according to the assay protocol as previously described above. […] The experiments were initiated with a baseline measurement (10–15 min). […] Inhibition of the radioligand was performed by adding different concentration series (1–500 nM) of unlabelled compounds (A3R antagonists) each after visual binding equilibrium. At least four different concentrations of competitor, spanning three orders of magnitude adjusted appropriately for the IC50 of each compound, were used. Unspecific binding was determined in the presence of a high concentration (0.5–100 μM) of the non-labelled competitor substance. The observed association phase of the radioligand and the dissociation phase of each consecutive concentration of the competitor substance were monitored in real-time until visual binding equilibrium was reached. All non-labelled compounds were initially dissolved in DMSO and diluted with deionized water to the final concentration, where the amount of DMSO never exceeded 5%. Cytophysiological conditions and cell attachment were examined continuously during the whole course of the experiment with the perimeter trace of the LigandTracer® software (version 1.0.1).
Raw data from the LigandTracer® measurements were analysed in GraphPad Prism 6.0 (GraphPad Software, Inc., San Diego, CA). Experiments were conducted at least as a triplicate with different batches of radioligand and biological target material to avoid systematic bias and to assure statistical certainty. […] Transformed data was analysed using “one-phase association” curve fitting algorithm as outlined in the following equation:2 Y=Y0+Plateau−Y0*1−e^−k*x where “x” is a given time and “Y” corresponds to the amount of radioligand binding for a dedicated time point. “Y 0” is the initial value of “Y” at the beginning of radioligand incubation and “plateau” indicates the maximum amount of the bound radioligand after equilibrium. “k” is the rate constant expressed in reciprocal units of “x”.
Transformed data were analysed by using “dissociation—one-phase exponential decay” curve fit as follows:3 Y=Y0−NS*e^−k*x+NS where “x” is a given time and “Y” corresponds to the amount of bound radioligand for a dedicated time point. “Y 0” is the initial value of “Y” at the beginning of each dissociation phase and “NS” indicates the steady state of radioligand binding in the presence of dedicated cold competitor after infinite time. “k” is the rate constant expressed in reciprocal units of “x”.
Equilibrium binding data determined in Eqs. (2) and (3) served as input parameters for the calculation of the IC50 using “log(inhibitor) vs. response—variable slope (four parameters)” nonlinear regression algorithm as described below:4 Y=Bottom+Top−Bottom/1+10^logIC50−C*HillSlope where “C” is the logarithm of the competitor concentration and “Y” reflects the dedicated amount of bound radioligand at equilibrium obtained from Eq. (3). “Top” indicates the maximum amount of radioligand binding (without any competitor) whereas the corresponding value is derived from Eq. (2). “Bottom” expresses the amount of unspecific radioligand binding in presence of a very high concentration of competitor. The dedicated value is determined by Eq. (3) and corresponds to the “NS” value of the last inhibitor concentration. The “HillSlope” reflects the slope factor, which indicates the steepness of the resulting inhibition curve. […] The resulting IC50 was converted into the K i using Cheng-Prusoff Eq. (3).

[2] = HPLC-based measurement of the logarithm of the octanol-water partition coefficient (HPLClogD7.4); format: physicochemical; conditions: pH 7.4, HPLC-based assay; mean ± SEM of three independent experiments
Description: The logarithm of the octanol-water partition coefficient of the A3R antagonists were determined at pH 7.4 by high-performance liquid chromatography (HPLC)-based assay (HPLClogD^7.4) modified from Donovan and Pescatore. Briefly, a mixture of two internal standards (toluene and triphenylene) with known logD values and defined retention times (k’) have been used. A3R antagonists were dissolved in methanol and injected onto a short polymeric ODP-50 column (20 × 4.0 mm, 5 μm pore size, Supelco, Bellefonte, PA, USA). A linear gradient from 10% methanol/90% phosphate buffer (25 mM, pH 7.4) to 100% methanol within 9.4 min at a flow rate of 1.5 mL/min were applied. Measurement and detection of the three retention times of toluene, triphenylene and A3R antagonists were performed at 260 and 285 nm. Between consecutive HPLC runs, 5 min for re-equilibration of the HPLC column were allowed. The logD values of the dedicated compounds were determined using the known logD values of triphenylene and toluene and the retention time of triphenylene, toluene and the unknown compounds according to the following formula:1 logPUnknown=logPtol−logPtriph*tUnknown+ttol*logPtriph−ttriph*logPtol/ttol−ttriph where “log P Unknown” is the logD value of the test compound and “t Unknown” the corresponding measured retention time of the dedicated substance. The logD values for the internal standards are abbreviated as “log P tol” (toluene) and “log P triph” (triphenylene), respectively. Measured retention times are indicated as “t tol” for toluene and “t triph” for triphenylene.

[3] = molecular target: human A3R; conditions: traditional saturation binding assays, membranes from human A3R-transfected HEK-293 cells; ref [29]; read-out: K d (Reported affinity); cited from earlier work
[4] = molecular target: human A3R; design: method as in PMID 11462807, PMID 8190112, PMID 8576921; conditions: traditional binding assays, membranes from human A3R-transfected HEK-293 cells; ref [30], [32], [33]; read-out: Ki Literature; cited from earlier work

Row | SMILES | Ki [1] [nM] | chromatographic logD [2] | Kd [3] [nM] | Ki [4] [nM]
1 | CCSC(=O)c1c(CC)nc(-c2ccccc2)c(C(=O)OCCF)c1CC [FE@SUPPY, 5-(2-fluoroethyl)2,4-diethyl-3-(ethylsulfanylcarbonyl)-6-phenylpyridine-5-carboxylate] | 8.51 ± 1.46 | 4.04 ± 0.36 |  | 
2 | CNC(=O)[C@H]1O[C@@H](n2cnc3c(NCc4ccc(N)c(I)c4)ncnc32)[C@H](O)[C@@H]1O [[^125I]-AB-MECA, [^125I]-4-aminobenzyl-5′-N-methylcarboxamideoadenosine] |  |  | 0.59 ± 0.02 | 
3 | CCSC(=O)c1c(CC)nc(-c2ccccc2)c(C(=O)O)c1CC [DFE@SUPPY, 4,6-diethyl-5-[(ethylsulfanyl)carbonyl]-2-phenylpyridine-3-carboxylic acid] | 114 ± 16.9 | 0.97 ± 0.37 |  | 
4 | CCc1nc(-c2ccccc2)c(C(=O)OCCF)c(CC)c1C(=O)SCCF [(FE)^2@SUPPY, 2-fluoroethyl 4,6-diethyl-5-{[(2-fluoroethyl)sulfanyl]carbonyl}-2-phenylpyridine-3-carboxylate] | 8.05 ± 1.77 | 3.95 ± 0.38 |  | 
5 | CCc1nc(-c2ccccc2)c(C(=O)OC)c(CC)c1C(=O)SCCF [FEMe@SUPPY:2, methyl 4,6-diethyl-5-{[(2-fluoroethyl)sulfanyl]carbonyl}-2-phenylpyridine-3-carboxylate] | 41.2 ± 3.91 | 3.83 ± 0.36 |  | 
6 | CCCOC(=O)c1c(-c2ccccc2)nc(CC)c(C(=O)SCC)c1CCC [MRS1523, 2,3-ethyl-4,5-dipropyl-6-phenylpyridine-3-thiocarboxylate-5-carboxylate, reference compound] | 17.8 ± 2.88 | 4.85 ± 0.01 |  | 18.9 ± 4.1
7 | CCc1nc(-c2ccccc2)c(C(=O)OC)c(CC)c1C(=O)SC [(Me)^2@SUPPY, methyl 4,6-diethyl-5-[(methylsulfanyl)carbonyl]-2-phenylpyridine-3-carboxylate] | 46.1 ± 6.66 | 3.66 ± 0.33 |  | 
8 | CCOC(=O)C1=C(C)NC(c2ccccc2)=C(C(=O)OCc2ccccc2)C1C#Cc1ccccc1 (centres unmarked) [MRS1191, 1,4-dihydro-2-methyl-6-phenyl-4-(phenylethynyl)-3,5-pyridinedicarboxylic acid, 3-ethyl 5-(phenylmethyl) ester, reference compound] |  | 4.83 ± 0.01 |  | 
9 | CCOC(=O)c1c(-c2ccccc2)nc(CC)c(C(=O)SCCF)c1CC [FE@SUPPY:2, 5-ethyl 2,4-diethyl-3-((2-fluoroethyl)sulfanylcarbonyl)-6-phenylpyridine-5-carboxylate] | 8.24 ± 2.35 | 4.05 ± 0.36 |  | 
